Measurements published in patent publication US11046699B2, “Pyrazolo-pyrimidin-amino-cycloalkyl compounds and their therapeutic uses” (RAPT THERAPEUTICS, INC., priority 2018, dated 2021).

target: GCN2 (Homo sapiens, UniProt Q9P2K8); assay: GCN2 enzymatic endpoint assay: phosphorylation of GFP-eIF2α measured by TR-FRET (Lanthascreen); format: biochemical; conditions: GCN2 biochemical IC50; 4 nM GCN2, 2 μM ATP, 80 nM GFP-eIF2α, 90 min RT; read-out: GCN2 activity
In short: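 Endpoint kinase reaction with 2 μM ATP and 80 nM GFP-labelled eIF2α substrate, run at room temperature for 90 min, then stopped with EDTA. Phospho-substrate detected by terbium-antibody TR-FRET, activity taken as the 520/495 nm emission ratio.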

GCN2, sequence (Q9P2K8 whole entry): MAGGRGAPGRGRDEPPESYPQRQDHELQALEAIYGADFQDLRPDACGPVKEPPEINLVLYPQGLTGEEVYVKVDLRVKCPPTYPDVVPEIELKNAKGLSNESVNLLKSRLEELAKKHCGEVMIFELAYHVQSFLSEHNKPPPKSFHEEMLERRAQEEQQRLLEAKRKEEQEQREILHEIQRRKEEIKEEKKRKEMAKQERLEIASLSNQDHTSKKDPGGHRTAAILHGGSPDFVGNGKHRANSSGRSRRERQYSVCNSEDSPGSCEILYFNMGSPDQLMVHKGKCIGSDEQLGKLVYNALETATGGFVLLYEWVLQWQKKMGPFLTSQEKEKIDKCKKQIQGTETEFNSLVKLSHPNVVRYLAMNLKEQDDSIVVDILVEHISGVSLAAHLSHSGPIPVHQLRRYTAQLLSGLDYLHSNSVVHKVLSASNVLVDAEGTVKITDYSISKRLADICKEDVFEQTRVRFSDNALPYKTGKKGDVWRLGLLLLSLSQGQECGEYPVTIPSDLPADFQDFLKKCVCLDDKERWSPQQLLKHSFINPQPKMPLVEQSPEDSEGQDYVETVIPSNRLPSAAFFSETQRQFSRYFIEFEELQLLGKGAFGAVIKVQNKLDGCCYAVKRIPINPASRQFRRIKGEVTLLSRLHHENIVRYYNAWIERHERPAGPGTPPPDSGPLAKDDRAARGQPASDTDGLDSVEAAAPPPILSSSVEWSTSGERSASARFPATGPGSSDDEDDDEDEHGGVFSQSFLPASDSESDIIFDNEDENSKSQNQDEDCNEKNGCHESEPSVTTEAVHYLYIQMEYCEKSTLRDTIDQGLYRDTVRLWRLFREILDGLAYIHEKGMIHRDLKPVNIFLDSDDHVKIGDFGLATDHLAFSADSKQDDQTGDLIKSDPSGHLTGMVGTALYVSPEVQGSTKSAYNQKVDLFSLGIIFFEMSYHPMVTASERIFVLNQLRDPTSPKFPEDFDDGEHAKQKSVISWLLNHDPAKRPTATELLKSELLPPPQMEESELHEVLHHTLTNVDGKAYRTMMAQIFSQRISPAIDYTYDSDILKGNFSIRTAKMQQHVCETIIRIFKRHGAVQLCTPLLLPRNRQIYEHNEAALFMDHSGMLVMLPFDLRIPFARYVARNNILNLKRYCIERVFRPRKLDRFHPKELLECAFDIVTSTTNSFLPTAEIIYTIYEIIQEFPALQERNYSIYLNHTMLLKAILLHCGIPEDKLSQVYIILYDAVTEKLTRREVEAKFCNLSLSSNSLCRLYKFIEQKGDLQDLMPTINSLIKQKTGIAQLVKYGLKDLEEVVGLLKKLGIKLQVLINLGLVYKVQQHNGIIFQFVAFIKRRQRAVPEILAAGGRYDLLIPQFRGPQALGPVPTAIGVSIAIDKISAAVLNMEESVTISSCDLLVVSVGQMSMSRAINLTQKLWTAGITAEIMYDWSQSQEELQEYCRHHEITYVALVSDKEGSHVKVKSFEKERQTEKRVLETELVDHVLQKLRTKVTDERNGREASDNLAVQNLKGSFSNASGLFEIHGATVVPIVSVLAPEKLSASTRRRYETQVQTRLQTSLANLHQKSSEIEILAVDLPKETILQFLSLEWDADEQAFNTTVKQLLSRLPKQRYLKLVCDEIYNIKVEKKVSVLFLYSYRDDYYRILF

| IC50 [nM] | SMILES |
| --- | --- |
| 25 to 200 | Cc1nnc(-c2ccc(-n3nc(Br)c4cnc(N[C@@H]5CC[C@@H](C(=O)N6CCNC(=O)C6)C5)nc43)cc2)o1 [Example 22, 4-((1R,3R)-3-((3-bromo-1-(4-(5-methyl-1,3,4-oxadiazol-2-yl)phenyl)-1H-pyrazolo[3,4-d]pyrimidin-6-yl)amino)cyclopentane-1-carbonyl)piperazin-2-one] |
| 25 to 200 | CNC(=O)[C@]1(C)CC[C@@H](Nc2ncc3c(Br)nn(-c4ccc(-c5nnc(C)s5)c(CCN(C)C)c4)c3n2)C1 [Example 63, (1R,3R)-3-((3-bromo-1-(3-(2-(dimethylamino)ethyl)-4-(5-methyl-1,3,4-thiadiazol-2-yl)phenyl)-1H-pyrazolo[3,4-d]pyrimidin-6-yl)amino)-N,1-dimethylcyclopentane-1-carboxamide; 2,2,2-trifluoroacetic acid] |
| < 25 | CNC(=O)[C@]1(C)CC[C@@H](Nc2ncc3c(Br)nn(-c4cc(CCN)c5ncccc5c4)c3n2)C1 [Example 32, (1R,3R)-3-((1-(8-(2-aminoethyl)quinolin-6-yl)-3-bromo-1H-pyrazolo[3,4-d]pyrimidin-6-yl)amino)-N,1-dimethylcyclopentane-1-carboxamide; 2,2,2-trifluoroacetic acid] |

same assay, conditions: tested as described in Example 77; compound and/or hydrochloride, dihydrochloride or trifluoroacetic acid salt; read-out: IC 50 Activity

| SMILES | IC50 [nM] |
| --- | --- |
| CNC(=O)[C@]1(C)CC[C@@H](Nc2ncc3c(Br)nn(-c4cc(C#N)cc(CCC5CNC5)c4)c3n2)C1 [(1R,3R)-3-[[1-[3-[2-(azetidin-3-yl)ethyl]-5-cyano-phenyl]-3-bromo-pyrazolo[3,4-d]pyrimidin-6-yl]amino]-N,1-dimethyl-cyclopentanecarboxamide] | 25 to 200 |
| CNC(=O)[C@]1(C)CC[C@@H](Nc2ncc3c(Br)nn(-c4ccc5c(c4)CNC(=O)C5)c3n2)C1 [(1R,3R)-3-[[3-bromo-1-(3-oxo-2,4-dihydro-1H-isoquinolin-7-yl)pyrazolo [3,4-d]pyrimidin-6-yl]amino]-N,1-dimethyl-cyclopentanecarboxamide] | 25 to 200 |
| COCCNC(=O)[C@@H]1CC[C@@H](Nc2ncc3c(Br)nn(-c4cc(C(F)(F)F)c5ncccc5c4)c3n2)C1 [(1R,3R)-3-((3-bromo-1-(8-(trifluoromethyl)quinolin-6-yl)-1H-pyrazolo[3,4-d]pyrimidin-6-yl)amino)-N-(2-methoxyethyl)cyclopentane-1-carboxamide] | 200 to 500 |
| CN(CC(N)=O)C(=O)[C@@H]1CC[C@@H](Nc2ncc3c(Br)nn(-c4cc(F)c5ncccc5c4)c3n2)C1 [(1R,3R)-N-(2-amino-2-oxoethyl)-3-((3-bromo-1-(8-fluoroquinolin-6-yl)-1H-pyrazolo[3,4-d]pyrimidin-6-yl)amino)-N-methylcyclopentane-1-carboxamide] | 25 to 200 |
| C[C@H](N)c1cc(Cl)cc(-n2nc(Br)c3cnc(N[C@@H]4CC[C@@](C)(C(=O)NCC(F)F)C4)nc32)c1 [(1R,3R)-3-[[1-[3-[(1S)-1-aminoethyl]-5-chloro-phenyl]-3-bromo-pyrazolo[3,4-d]pyrimidin-6-yl]amino]-N-(2,2-difluoro-ethyl)-1-methyl-cyclopentanecarboxamide] | 25 to 200 |
| O=C1CN(C(=O)[C@@H]2CC[C@@H](Nc3ncc4c(Br)nn(-c5ccc(-c6ncco6)cc5)c4n3)C2)CCN1 [4-((1R,3R)-3-((3-bromo-1-(4-(oxazol-2-yl)phenyl)-1H-pyrazolo[3,4-d]pyrimidin-6-yl)amino)cyclopentane-1-carbonyl)piperazin-2-one] | 25 to 200 |
| CNC(=O)[C@]1(C)CC[C@@H](Nc2ncc3c(Br)nn(-c4cc(C#N)cc(CN)c4)c3n2)C1 | 25 to 200 |
| O[C@@H]1CC[C@@H](Nc2ncc3c(Br)nn(-c4cc(F)c5ncccc5c4)c3n2)C1 [(1R,3R)-3-[[3-bromo-1-(8-fluoro-6-quinolyl)pyrazolo[3,4-d]pyrimidin-6-yl]amino]cyclopentanol] | 25 to 200 |
| Cc1nnc(-c2ccc(-n3nc(Br)c4cnc(N[C@@H]5CC[C@]6(CCNC6=O)C5)nc43)cc2CCC#N)s1 | 25 to 200 |
| CNC(=O)[C@]1(C)CC[C@@H](Nc2ncc3c(Br)nn(-c4cc(CN5CCCS5(=O)=O)c5ncccc5c4)c3n2)C1 [(1R,3R)-3-[[3-bromo-1-[8-[(1,1-dioxo-1,2-thiazolidin-2-yl)methyl]-6-quinolyl]pyrazolo[3,4-d]pyrimidin-6-yl]amino]-N,1-dimethyl-cyclopentanecarboxamide] | 25 to 200 |
| O=C(N[C@@H]1CCOC1)[C@@H]1CC[C@@H](Nc2ncc3c(Br)nn(-c4ccc5ncccc5c4)c3n2)C1 [(1R,3R)-3-((3-bromo-1-(quinolin-6-yl)-1H-pyrazolo[3,4-d]pyrimidin-6-yl)amino)-N-((R)-tetrahydrofuran-3-yl)cyclopentane-1-carboxamide] | 25 to 200 |
| CNC(=O)[C@]1(C)CC[C@@H](Nc2ncc3c(Br)nn(-c4ccc(-c5nnc(C)s5)c(OCC5CNC5)c4)c3n2)C1 [(1R,3R)-3-[[1-[3-(azetidin-3-ylmethoxy)-4-(5-methyl-1,3,4-thiadiazol-2-yl)phenyl]-3-bromo-pyrazolo[3,4-d]pyrimidin-6-yl]amino]-N,1-dimethyl-cyclopentane-carboxamide] | 25 to 200 |
| CNC(=O)[C@@]1(C)CC[C@@H](Nc2ncc3c(Br)nn(-c4ccc5nccnc5c4)c3n2)C1 [(1S,3R)-3-((3-bromo-1-(quinoxalin-6-yl)-1H-pyrazolo[3,4-d]pyrimidin-6-yl)amino)-N,1-dimethylcyclopentane-1-carboxamide] | 500 to 1000 |
| CNC(=O)[C@@H]1CC[C@@H](Nc2ncc3c(Br)nn(-c4ccc5ncc(Cl)cc5c4)c3n2)C1 [(1R,3R)-3-[[3-bromo-1-(3-chloro-6-quinolyl)pyrazolo[3,4-d]pyrimidin-6-yl]amino]-N-methyl-cyclopentanecarboxamide] | 25 to 200 |

Results, then the molecule that gave them:

| IC50 [nM] | SMILES |
| --- | --- |
| 25 to 200 | CCN1CN(C(=O)[C@@H]2CC[C@@H](Nc3ncc4c(Br)nn(-c5cc(F)c6ncccc6c5)c4n3)C2)CC1=O [1-((1R,3R)-3-((3-bromo-1-(8-fluoroquinolin-6-yl)-1H-pyrazolo[3,4-d]pyrimidin-6-yl)amino)cyclopentane-1-carbonyl)-3-ethyl-imidazolidin-4-one] |
| 25 to 200 | CO[C@@H]1CC[C@@H](Nc2ncc3c(Br)nn(-c4cc(F)c5ncccc5c4)c3n2)C1 [3-bromo-1-(8-fluoro-6-quinolyl)-N-[(1R,3R)-3-methoxycyclopentyl]pyrazolo[3,4-d] pyrimidin-6-amine] |
| 25 to 200 | CNC(=O)[C@]1(C)CC[C@@H](Nc2ncc3c(Br)nn(-c4cc(CC5(N)CC5)c5ncccc5c4)c3n2)C1 [(1R,3R)-3-[[1-[8-[(1-aminocyclopropyl)methyl]-6-quinolyl]-3-bromo-pyrazolo [3,4-d]pyrimidin-6-yl]amino]-N,1-dimethyl-cyclopentanecarboxamide] |
| 25 to 200 | O=S(=O)(NC1CC1)[C@@H]1CC[C@@H](Nc2ncc3c(Br)nn(-c4ccc5ncccc5c4)c3n2)C1 [(1R,3R)-3-((3-bromo-1-(quinolin-6-yl)-1H-pyrazolo[3,4-d]pyrimidin-6-yl)amino)-N-cyclopropylcyclopentane-1-sulfonamide] |
| 25 to 200 | CC1(C(=O)NCC(F)F)CC[C@@H](Nc2ncc3c(Br)nn(-c4cc(F)c5ncccc5c4)c3n2)C1 (stereo partly drawn) [(3R)-3-[[3-bromo-1-(8-fluoro-6-quinolyl)pyrazolo[3,4-d]pyrimidin-6-yl]amino]-N-(2,2-difluoroethyl)-1-methyl-cyclopentane-carboxamide] |
| 25 to 200 | CNC(=O)[C@]1(C)CC[C@@H](Nc2ncc3c(Br)nn(-c4cc(CCNC(=O)OC)c5ncccc5c4)c3n2)C1 [methyl N-[2-[6-[3-bromo-6-[[(1R,3R)-3-methyl-3-(methylcarbamoyl)cyclopentyl]amino]pyrazolo[3,4-d]pyrimidin-1-yl]-8-quinolyl]ethyl]carbamate] |
| 25 to 200 | CNC(=O)[C@]1(C)CC[C@@H](Nc2ncc3c(Br)nn(-c4ccc(-c5cnon5)cc4)c3n2)C1 [(1R,3R)-3-[[3-bromo-1-[4-(1,2,5-oxadiazol-3-yl)phenyl]pyrazolo[3,4-d]pyrimidin-6-yl]amino]-N,1-dimethyl-cyclopentane-carboxamide] |
| 25 to 200 | CNC(=O)[C@]1(C)CC[C@@H](Nc2ncc3c(Br)nn(-c4ccn5c(=O)ccnc5c4)c3n2)C1 [(1R,3R)-3-[[3-bromo-1-(4-oxopyrido[1,2-a]pyrimidin-8-yl)pyrazolo[3,4-d]pyrimidin-6-yl]amino]-N,1-dimethyl-cyclopentane-carboxamide] |
| 25 to 200 | O[C@H]1CCC[C@@H]1Nc1ncc2c(Br)nn(-c3cc(F)c4ncccc4c3)c2n1 [(1S,2S)-2-[[3-bromo-1-(8-fluoro-6-quinolyl)pyrazolo[3,4-d]pyrimidin-6-yl]amino] cyclopentanol] |
| 25 to 200 | NC(=O)C1(NC(=O)[C@@H]2CC[C@@H](Nc3ncc4c(Br)nn(-c5cc(F)c6ncccc6c5)c4n3)C2)CC1 [(1R,3R)-3-[[3-bromo-1-(8-fluoro-6-quinolyl)pyrazolo[3,4-d]pyrimidin-6-yl]amino]-N-(1-carbamoylcyclopropyl)cyclopentane-carboxamide] |
| < 25 | CNC(=O)[C@]1(C)CC[C@@H](Nc2ncc3c(Br)nn(-c4cc(NC(=O)CCN)c5ncccc5c4)c3n2)C1 [(1R,3R)-3-[[1-[8-(3-aminopropanoylamino)-6-quinolyl]-3-bromo-pyrazolo[3,4-d]pyrimidin-6-yl]amino]-N,1-dimethyl-cyclopentanecarboxamide] |
| 25 to 200 | CNC(=O)[C@]1(C)CCC(Nc2ncc3c(Br)nn(-c4cnc(-c5nnc(C)s5)c(Cl)c4)c3n2)C1 (stereo partly drawn) [(1R)-3-[[3-bromo-1-[5-chloro-6-(5-methyl-1,3,4-thiadiazol-2-yl)-3-pyridyl]pyrazolo [3,4-d]pyrimidin-6-yl]amino]-N,1-dimethyl-cyclopentanecarboxamide] |
| 25 to 200 | CNC(=O)[C@]1(C)CC[C@@H](Nc2ncc3c(Br)nn(-c4ccc(-c5nnc(C)o5)c(CCO)c4)c3n2)C1 [(1R,3R)-3-[[3-bromo-1-[3-(2-hydroxyethyl)-4-(5-methyl-1,3,4-oxadiazol-2-yl)phenyl]pyrazolo[3,4-d]pyrimidin-6-yl]amino]-N,1-dimethyl-cyclopentanecarboxamide] |
| < 25 | CC1N(C)C(=O)CN1C(=O)[C@@H]1CC[C@@H](Nc2ncc3c(Br)nn(-c4cc(F)c5ncccc5c4)c3n2)C1 (mixture of isomers) |
